Literature values, collected in patent publication US20220160669A1, “PARENTERAL NUTRITION FORMULATION” (BAXTER INTERNATIONAL INC., priority 2020, published 2022).

Conditions: human, in vivo; cited from earlier work

For `CCCC(=O)[O-].[Na+]` [sodium butyrate], the clearance rate is listed as 83 ± 12 mL/min/kg.
